According to the CheMixHub viscosity set:

Test: xn = mol fraction of the nth substance listed

CCCCCCCCCCCCCCCC + CCCCCC
Conditions | viscosity [mPa·s]
298.09 K, 100 kPa, x1 = 0.8 | 2.236
298.12 K, 100 kPa, x1 = 0.4 | 0.991
298.15 K, 100 kPa, x1 = 0.6 | 1.518
298.15 K, 101 kPa, x1 = 0.1995 | 0.6062
298.15 K, 101 kPa, x1 = 0.3978 | 1.017
298.15 K, 101 kPa, x1 = 0.5746 | 1.453
298.15 K, 101 kPa, x1 = 0.8011 | 2.209
298.15 K, 101.33 kPa, x2 = 0.1046 | 2.659
298.15 K, 101.33 kPa, x2 = 0.1966 | 2.25
298.15 K, 101.33 kPa, x2 = 0.3 | 1.88
298.15 K, 101.33 kPa, x2 = 0.4037 | 1.547
298.15 K, 101.33 kPa, x2 = 0.5142 | 1.214
298.15 K, 101.33 kPa, x2 = 0.6072 | 0.987
298.15 K, 101.33 kPa, x2 = 0.7062 | 0.7626
298.15 K, 101.33 kPa, x2 = 0.8048 | 0.58
298.15 K, 101.33 kPa, x2 = 0.9026 | 0.4277
298.19 K, 101 kPa, x2 = 0.1987 | 2.235
298.19 K, 101 kPa, x2 = 0.3772 | 1.607
298.19 K, 101 kPa, x2 = 0.5983 | 1.001
298.19 K, 101 kPa, x2 = 0.7982 | 0.5933
298.22 K, 100 kPa, x1 = 0.2 | 0.584
318.26 K, 101 kPa, x2 = 0.1976 | 1.534
318.26 K, 101 kPa, x2 = 0.3758 | 1.155
318.26 K, 101 kPa, x2 = 0.5971 | 0.7591
318.26 K, 101 kPa, x2 = 0.7975 | 0.4712
323.13 K, 100 kPa, x1 = 0.6 | 1.028

ClC(Cl)Cl + CCCCCC
viscosity [mPa·s], 101 kPa
Conditions | x2 = 0.098 | x2 = 0.202 | x2 = 0.2873 | x2 = 0.4056 | x2 = 0.5009 | x2 = 0.5885 | x2 = 0.7253 | x2 = 0.8116 | x2 = 0.9008
293.15 K | 0.5269 | 0.4839 | 0.4558 | 0.42 | 0.3965 | 0.3762 | 0.3509 | 0.3368 | 0.3242
298.15 K | 0.5028 | 0.4606 | 0.434 | 0.3996 | 0.3781 | 0.3582 | 0.3341 | 0.3206 | 0.309
303.15 K | 0.4779 | 0.4396 | 0.4142 | 0.3811 | 0.3628 | 0.3413 | 0.3186 | 0.3056 | 0.2945
313.15 K | 0.4362 | 0.3998 | 0.3783 | 0.3472 | 0.3308 | 0.311 | 0.2912 | 0.2786 | 0.2683

CCCCCCCCCCCCCCCC + CCCCCCC
Conditions | viscosity [mPa·s]
293.17 K, 101 kPa, x1 = 0.097 | 0.553
293.17 K, 101 kPa, x1 = 0.195 | 0.73
293.17 K, 101 kPa, x1 = 0.492 | 1.475
293.17 K, 101 kPa, x1 = 0.785 | 2.597
298 K, 101 kPa, x2 = 0.5 | 1.377
298.15 K, 101 kPa, x1 = 0.211 | 0.7064
298.15 K, 101 kPa, x1 = 0.4067 | 1.102
298.15 K, 101 kPa, x1 = 0.5795 | 1.552
298.15 K, 101 kPa, x1 = 0.7867 | 2.202
298.15 K, 101.33 kPa, x2 = 0.1067 | 2.618
298.15 K, 101.33 kPa, x2 = 0.1981 | 2.268
298.15 K, 101.33 kPa, x2 = 0.3001 | 1.922
298.15 K, 101.33 kPa, x2 = 0.4055 | 1.603
298.15 K, 101.33 kPa, x2 = 0.5077 | 1.307
298.15 K, 101.33 kPa, x2 = 0.607 | 1.08
298.15 K, 101.33 kPa, x2 = 0.7086 | 0.8554
298.15 K, 101.33 kPa, x2 = 0.8028 | 0.68
298.15 K, 101.33 kPa, x2 = 0.9019 | 0.5217
303.15 K, 101 kPa, x1 = 0.097 | 0.485
303.15 K, 101 kPa, x1 = 0.195 | 0.632
303.15 K, 101 kPa, x1 = 0.492 | 1.233
303.15 K, 101 kPa, x1 = 0.785 | 2.079
318 K, 101 kPa, x2 = 0.5 | 1.005

CCCCCCCCCCCCCCCC + CCCCCCCC
Conditions | viscosity [mPa·s]
298.15 K, 101.33 kPa, x2 = 0.1039 | 2.656
298.15 K, 101.33 kPa, x2 = 0.2122 | 2.305
298.15 K, 101.33 kPa, x2 = 0.3109 | 1.973
298.15 K, 101.33 kPa, x2 = 0.4114 | 1.682
298.15 K, 101.33 kPa, x2 = 0.5033 | 1.452
298.15 K, 101.33 kPa, x2 = 0.6068 | 1.205
298.15 K, 101.33 kPa, x2 = 0.7096 | 0.982
298.15 K, 101.33 kPa, x2 = 0.8067 | 0.7957
298.15 K, 101.33 kPa, x2 = 0.9049 | 0.6421
318.16 K, 101 kPa, x1 = 0.15 | 0.5758
318.16 K, 101 kPa, x1 = 0.3499 | 0.8378
318.16 K, 101 kPa, x1 = 0.5001 | 1.073
318.16 K, 101 kPa, x1 = 0.6398 | 1.317
318.16 K, 101 kPa, x1 = 0.7996 | 1.627

CCCCCCCCCCCCCCCC + CCCCCCCCCC
Conditions | viscosity [mPa·s]
298.15 K, 101.33 kPa, x2 = 0.1051 | 2.749
298.15 K, 101.33 kPa, x2 = 0.2075 | 2.481
298.15 K, 101.33 kPa, x2 = 0.3045 | 2.2
298.15 K, 101.33 kPa, x2 = 0.4045 | 1.976
298.15 K, 101.33 kPa, x2 = 0.5081 | 1.733
298.15 K, 101.33 kPa, x2 = 0.6095 | 1.53
298.15 K, 101.33 kPa, x2 = 0.7051 | 1.336
298.15 K, 101.33 kPa, x2 = 0.8037 | 1.17
298.15 K, 101.33 kPa, x2 = 0.9041 | 0.9885
313.15 K, 100 kPa, x2 = 0.35 | 1.6
313.15 K, 100 kPa, x2 = 0.61 | 1.18
313.15 K, 100 kPa, x2 = 0.83 | 0.9

CCCCCCCCCC(=O)OC + CCCCCCCCCCC
viscosity [mPa·s], 100 kPa
Conditions | x2 = 0.0986 | x2 = 0.1998 | x2 = 0.2992 | x2 = 0.3988 | x2 = 0.4974 | x2 = 0.5994 | x2 = 0.6999 | x2 = 0.7993 | x2 = 0.899
293.15 K | 1.97 | 1.831 | 1.717 | 1.611 | 1.516 | 1.425 | 1.342 | 1.272 | 1.219
298.15 K | 1.783 | 1.662 | 1.559 | 1.468 | 1.386 | 1.306 | 1.234 | 1.169 | 1.124
303.15 K | 1.625 | 1.517 | 1.427 | 1.344 | 1.268 | 1.198 | 1.137 | 1.08 | 1.039
308.15 K | 1.487 | 1.392 | 1.311 | 1.237 | 1.171 | 1.109 | 1.053 | 1.002 | 0.964
313.15 K | 1.368 | 1.283 | 1.211 | 1.145 | 1.083 | 1.029 | 0.978 | 0.932 | 0.897
318.15 K | 1.264 | 1.187 | 1.122 | 1.062 | 1.007 | 0.958 | 0.912 | 0.871 | 0.838
323.15 K | 1.172 | 1.102 | 1.044 | 0.99 | 0.939 | 0.894 | 0.853 | 0.815 | 0.786

CCCCCCCCCCCCCCCC + CCCCCCCCCCCC
298.15 K, 101.33 kPa
Conditions | viscosity [mPa·s]
x2 = 0.1077 | 2.821
x2 = 0.2113 | 2.643
x2 = 0.3061 | 2.467
x2 = 0.4097 | 2.281
x2 = 0.5073 | 2.102
x2 = 0.6082 | 1.936
x2 = 0.7053 | 1.767
x2 = 0.8045 | 1.636
x2 = 0.905 | 1.476

ClC(Cl)Cl + CCCCCCCCCCO
viscosity [mPa·s], 101 kPa
Conditions | 303.15 K | 313.15 K
x1 = 0.0523 | 8.774 | 6.174
x1 = 0.1025 | 7.938 | 5.59
x1 = 0.1519 | 7.108 | 5.068
x1 = 0.1992 | 6.311 | 4.603
x1 = 0.2501 | 5.65 | 4.121
x1 = 0.2992 | 5.021 | 3.726
x1 = 0.3497 | 4.374 | 3.291
x1 = 0.4005 | 3.838 | 2.935
x1 = 0.451 | 3.293 | 2.571
x1 = 0.5 | 2.873 | 2.259
x1 = 0.5504 | 2.439 | 1.974
x1 = 0.5991 | 2.098 | 1.697
x1 = 0.6496 | 1.778 | 1.48
x1 = 0.699 | 1.501 | 1.251
x1 = 0.7508 | 1.277 | 1.076
x1 = 0.799 | 1.052 | 0.911
x1 = 0.8513 | 0.916 | 0.77
x1 = 0.8999 | 0.784 | 0.661
x1 = 0.9501 | 0.651 | 0.561
